The source of these data is patent US20230150924A1, “NOVEL COMPOUND HAVING CANCER METASTASIS INHIBITORY ACTIVITY, PREPARATION METHOD THEREFOR, AND PHARMACEUTICAL COMPOSITION FOR INHIBITING CANCER METASTASIS AND INVASION OR TREATING COLORECTAL CANCER, COMPRISING COMPOUND” (CELLGENTEK CO., LTD., priority 2019, published 2023).

Like-named read-outs stand apart in the source and are kept apart here.

One experiment has as its system KAI1 promoter. Kind of experiment: KAI1 promoter luciferase reporter assay in transfected Caco2 cells. The class given is cell-based, human. The following applies: Homo sapiens, Caco-2, 16 h, read-out: Relative KAI promoter activity. (In general: Reporter assays use an easily measured gene product as a stand-in for the process of interest.)
In experiment [1] the test system is invasion of colorectal cancer cells. Kind of experiment: In vivo relative invation (invasion; EV and KITENIN controls, no method described). The following applies: relative to EV (=1); KIT = KITENIN.
Setting [2] is: 1 μM compound, 16 hours, transfected Caco2 cells, luciferase activity relative to DMSO control (=1).

As to `O=C(CNC(=O)c1ccccc1OC1CCN(C(=O)c2ccco2)CC1)c1ccccc1` [Example 155, 2-((1-(furan-2-carbonyl)piperidin-4-yl)oxy)-N-(2-oxo-2-phenylethyl)benzamide], the fold induction at 1 µM in the experiment with KAI1 promoter (setting [2]) was determined as 0.99. Besides, in experiment [1], the “In vivo relative invation” value amounted to 1.151.

With `O=C(CNC(=O)c1cccc(Cl)c1)c1ccc(Cl)cc1` [Example 47, 3-chloro-N-(2-(4-chlorophenyl)-2-oxoethyl)benzamide], the fold induction at 1 µM in the experiment on KAI1 promoter (setting [2]) stood at 0.76. The “In vivo relative invation” value in experiment [1] stood at 0.9038.

For the molecule `CCN(CC)Cc1cccc(C(=O)NCC(=O)c2ccccc2)c1` [Example 247, 3-((diethylamino)methyl)-N-(2-oxo-2-phenylethyl)benzamide], the fold induction at 1 µM in the experiment on KAI1 promoter (setting [2]) turned out to be 1.27. Further, the “In vivo relative invation” value in experiment [1] amounted to 1.124.

Regarding `O=C(CNC(=O)c1cccc(OC(F)(F)F)c1)c1ccc(Cl)cc1` [Example 82, N-(2-(4-chlorophenyl)-2-oxoethyl)-3-(trifluoromethoxy)benzamide], the fold induction at 1 µM in the experiment with KAI1 promoter (setting [2]) is 0.8. The “In vivo relative invation” value in experiment [1] worked out at 1.189.

On to `O=C(CNC(=O)c1ccc(CN2CCC(N3CCCCC3)CC2)cc1)c1ccccc1` [Example 260, 4-([1,4′-bipiperidin]-1′-ylmethyl)-N-(2-oxo-2-phenylethyl)benzamide], for which the fold induction at 1 µM in the experiment with KAI1 promoter (setting [2]) stood at 1.33. For the same molecule, the “In vivo relative invation” value in experiment [1] is given as 1.092.

For the molecule `CCCCN(CC)Cc1ccc(C(=O)NCC(=O)c2ccccc2)cc1` [Example 273, 4-((butyl(ethyl)amino)methyl)-N-(2-oxo-2-phenylethyl)benzamide], the fold induction at 1 µM with KAI1 promoter (setting [2]) was 1.2. Besides, in experiment [1], the “In vivo relative invation” value is recorded as 1.171.

As for `COc1ccc(C(=O)NCC(=O)c2ccc(N(C)C)cc2)cc1` [Example 97, N-(2-(4-(dimethylamino)phenyl)-2-oxoethyl)-4-methoxybenzamide], in the experiment with KAI1 promoter (setting [2]), the fold induction at 1 µM was 1.8. Moreover, in experiment [1], the “In vivo relative invation” value is recorded as 1.024.

For `C=CCN(CC=C)Cc1cccc(C(=O)NCC(=O)c2ccccc2)c1` [Example 241, 3-((diallylamino)methyl)-N-(2-oxo-2-phenylethyl)benzamide], the fold induction at 1 µM in the experiment with KAI1 promoter (setting [2]) amounted to 1.1. Moreover, the “In vivo relative invation” value in experiment [1] came to 1.126.

On to `O=C(CNC(=O)c1ccccc1OC1CCN(C(=O)c2cccc([N+](=O)[O-])c2)CC1)c1ccccc1` [Example 195, 2-((1-(3-nitrobenzoyl)piperidin-4-yl)oxy)-N-(2-oxo-2-phenylethyl)benzamide], for which the fold induction at 1 µM with KAI1 promoter (setting [2]) amounted to 1.08. Further, in experiment [1], the “In vivo relative invation” value is 1.139.

For `O=C(CNC(=O)c1ccc(F)cc1)c1cccnc1` [Example 133, 4-fluoro-N-(2-oxo-2-(pyridin-3-yl)ethyl)benzamide], in the experiment with KAI1 promoter (setting [2]), the fold induction at 1 µM is 1.15. Also, in experiment [1], the “In vivo relative invation” value is given as 1.32.

As to `O=C(CNS(=O)(=O)c1ccc(F)cc1)c1ccc(Cl)cc1` [Example 67, N-(2-(4-chlorophenyl)-2-oxoethyl)-4-fluorobenzenesulfonamide], in the experiment with KAI1 promoter (setting [2]), the fold induction at 1 µM amounted to 0.87. Further, the “In vivo relative invation” value in experiment [1] was found to be 1.175.

For `O=C(CNC(=O)c1cccc(Cl)c1)c1ccccc1` [Example 7, 3-chloro-N-(2-oxo-2-phenylethyl)benzamide], the fold induction at 1 µM in the experiment on KAI1 promoter (setting [2]) is 1.2. In addition, the “In vivo relative invation” value in experiment [1] came to 1.091.

Consider `O=C(CNC(=O)c1cccc(CN2CCc3ccccc3C2)c1)c1ccccc1` [Example 232, 3-((3,4-dihydroisoquinolin-2 (1H)-yl)methyl)-N-(2-oxo-2-phenylethyl)benzamide], for which the fold induction at 1 µM in the experiment on KAI1 promoter (setting [2]) was 1.23. Moreover, in experiment [1], the “In vivo relative invation” value is on record as 1.125.

For `O=C(CNC(=O)c1ccc(F)cc1)c1ccccc1` [Example 4, 4-fluoro-N-(2-oxo-2-phenylethyl)benzamide], in the experiment with KAI1 promoter, the fold induction at 1 µM is 1.88. Besides, in experiment [1], the “In vivo relative invation” value was found to be 1.084.

`O=C(COc1ccccc1C(=O)NCC(=O)c1ccccc1)Nc1ccc(F)c([N+](=O)[O-])c1` [Example 211]: in the experiment with KAI1 promoter (setting [2]), the fold induction at 1 µM amounted to 1.44. The “In vivo relative invation” value in experiment [1] was found to be 0.8699.

With `O=C(CNC(=O)c1ccccc1CN1CCN(c2ccccn2)CC1)c1ccccc1` [Example 302, N-(2-oxo-2-phenylethyl)-2-((4-(pyridin-2-yl)piperazin-1-yl)methyl)benzamide], the fold induction at 1 µM in the experiment with KAI1 promoter (setting [2]) is 1.41. Also, the “In vivo relative invation” value in experiment [1] came out at 1.175.

On to `CCCCC(=O)NCC(=O)c1ccc(Cl)cc1` [Example 61, N-(2-(4-chlorophenyl)-2-oxoethyl)pentanamide], for which, in the experiment on KAI1 promoter (setting [2]), the fold induction at 1 µM was 0.72. Besides, in experiment [1], the “In vivo relative invation” value amounted to 1.

Regarding `COc1cc(OC)cc(C(=O)NCC(=O)c2ccc(Cl)cc2)c1` [Example 85, N-(2-(4-chlorophenyl)-2-oxoethyl)-3,5imethoxybenzamide], the fold induction at 1 µM in the experiment with KAI1 promoter (setting [2]) was 0.96. In experiment [1], the “In vivo relative invation” value is on record as 1.206.

In the case of `O=C(CNC(=O)c1ccccc1OC1CCN(C(=O)c2ccccc2Cl)CC1)c1ccccc1` [Example 156, 2-((1-(2-chlorobenzoyl)piperidin-4-yl)oxy)-N-(2-oxo-2-phenylethyl)benzamide], the fold induction at 1 µM with KAI1 promoter (setting [2]) was determined as 0.99. Further, the “In vivo relative invation” value in experiment [1] is given as 1.158.

`CN(C)c1ccc(C(=O)CNC(=O)c2ccccc2F)cc1` [Example 90, N-(2-(4-(dimethylamino)phenyl)-2-oxoethyl)-2-fluorobenzamide]: the fold induction at 1 µM in the experiment on KAI1 promoter (setting [2]) amounted to 1.88. The “In vivo relative invation” value in experiment [1] was found to be 1.124.

As for `CC(Oc1ccccc1)C(=O)NCC(=O)c1ccc(N(C)C)cc1` (centres unmarked) [Example 89, N-(2-(4-(dimethylamino)phenyl)-2-oxoethyl)-2-phenoxypropanamide], the fold induction at 1 µM with KAI1 promoter (setting [2]) is 1.27. The “In vivo relative invation” value in experiment [1] was 1.074.

Turning to `O=C(CNC(=O)c1cc(Cl)cc(Cl)c1)c1ccc(Cl)cc1` [Example 79, 3,5-dichloro-N-(2-(4-chlorophenyl)-2-oxoethyl)benzamide], the fold induction at 1 µM in the experiment with KAI1 promoter (setting [2]) worked out at 1.03. Further, the “In vivo relative invation” value in experiment [1] turned out to be 1.102.

In the case of `O=C(CNC(=O)c1ccc(F)cc1F)c1ccccc1` [Example 22, 2,4-difluoro-N-(2-oxo-2-phenylethyl)benzamide], the fold induction at 1 µM in the experiment with KAI1 promoter (setting [2]) amounted to 1.56. The “In vivo relative invation” value in experiment [1] was found to be 1.163.

For the molecule `COc1cccc(C(=O)CNC(=O)C2CCC2)c1` [Example 126, N-(2-(3-methoxyphenyl)-2-oxoethyl)cyclobutanecarboxamide], the fold induction at 1 µM with KAI1 promoter (setting [2]) was 1.08. Also, the “In vivo relative invation” value in experiment [1] worked out at 1.352.

As to `CC(C)(C)CC(=O)N1CCC(Oc2ccccc2C(=O)NCC(=O)c2ccccc2)CC1` [Example 170, 2-((1-(3,3-dimethylbutanoyl)piperidin-4-yl)oxy)-N-(2-oxo-2-phenylethyl)benzamide], the fold induction at 1 µM in the experiment on KAI1 promoter (setting [2]) amounted to 1.03. Further, the “In vivo relative invation” value in experiment [1] was 1.244.

For `CN(C)c1ccc(C(=O)CNC(=O)c2ccc(F)cc2)cc1` [Example 91, N-(2-(4-(dimethylamino)phenyl)-2-oxoethyl)-4-fluorobenzamide], in the experiment on KAI1 promoter (setting [2]), the fold induction at 1 µM came to 2.44. Moreover, in experiment [1], the “In vivo relative invation” value amounted to 1.058.

Consider `O=C(CNS(=O)(=O)c1ccc(F)cc1)c1ccccc1` [Example 26, 4-fluoro-N-(2-oxo-2-phenylethyl)benzenesulfonamide], for which the fold induction at 1 µM with KAI1 promoter (setting [2]) stood at 1.26. The “In vivo relative invation” value in experiment [1] amounted to 1.063.

Turning to `Cc1ccc(S(=O)(=O)NCC(=O)c2ccccc2)cc1` [Example 27, 4-methyl-N-(2-oxo-2-phenylethyl)benzenesulfonamide], the fold induction at 1 µM in the experiment on KAI1 promoter (setting [2]) is 1.31. Further, the “In vivo relative invation” value in experiment [1] is on record as 1.044.

For the molecule `C=CC(=O)NCC(=O)c1ccccc1` [Example 10, N-(2-oxo-2-phenylethyl) acrylamide], the fold induction at 1 µM with KAI1 promoter (setting [2]) is 1.08. The “In vivo relative invation” value in experiment [1] was determined as 0.9099.

Consider `Cc1cccc(C(=O)NCC(=O)c2ccccc2)c1` [Example 13, 3-methyl-N-(2-oxo-2-phenylethyl)benzamide], for which the fold induction at 1 µM with KAI1 promoter (setting [2]) was determined as 1.73. Moreover, in experiment [1], the “In vivo relative invation” value was 0.8565.

As to `CN(C)C(=O)N1CCC(Oc2ccccc2C(=O)NCC(=O)c2ccccc2)CC1` [Example 180, N,N-dimethyl-4-(2-((2-oxo-2-phenylethyl)carbamoyl)phenoxy) piperidine-1-carboxamide], the fold induction at 1 µM in the experiment on KAI1 promoter (setting [2]) stood at 1.09. For the same molecule, the “In vivo relative invation” value in experiment [1] came out at 1.253.

For `O=C(CNC(=O)c1ccc(CN2CCN(c3ncccn3)CC2)cc1)c1ccccc1` [Example 258, N-(2-oxo-2-phenylethyl)-4-((4-(pyrimidin-2-yl)piperazin-1-yl)methyl)benzamide], the fold induction at 1 µM in the experiment on KAI1 promoter (setting [2]) was found to be 2.31. Also, the “In vivo relative invation” value in experiment [1] is on record as 1.223.

Regarding `COCC(=O)N1CCC(Oc2ccccc2C(=O)NCC(=O)c2ccccc2)CC1` [Example 178, 2-((1-(2-methoxyacetyl)piperidin-4-yl)oxy)-N-(2-oxo-2-phenylethyl)benzamide], the fold induction at 1 µM with KAI1 promoter (setting [2]) amounted to 0.91. For the same molecule, the “In vivo relative invation” value in experiment [1] came to 1.228.

Turning to `O=C(CNS(=O)(=O)c1ccc(F)cc1)c1ccc(N2CCOCC2)cc1` [Example 146, 4-fluoro-N-(2-(4-morpholinophenyl)-2-oxoethyl)benzenesulfonamide], in the experiment with KAI1 promoter (setting [2]), the fold induction at 1 µM is 1.16. The “In vivo relative invation” value in experiment [1] turned out to be 0.7474.

Consider `O=C(CNC(=O)c1ccccc1OC(F)(F)F)c1ccccc1` [Example 41, N-(2-oxo-2-phenylethyl)-2-(trifluoromethoxy)benzamide], for which the fold induction at 1 µM in the experiment with KAI1 promoter (setting [2]) came out at 1.19. In addition, the “In vivo relative invation” value in experiment [1] is on record as 0.7565.

With `COc1ccccc1N1CCN(Cc2ccc(C(=O)NCC(=O)c3ccccc3)cc2)CC1` [Example 259, 4-((4-(2-methoxyphenyl)piperazin-1-yl)methyl)-N-(2-oxo-2-phenylethyl)benzamide], the fold induction at 1 µM with KAI1 promoter (setting [2]) stood at 1.23. In addition, in experiment [1], the “In vivo relative invation” value stood at 1.251.

As to `O=C(CNC(=O)c1ccccc1OC1CCN(C(=O)c2cccc(C(F)(F)F)c2)CC1)c1ccccc1` [Example 192, N-(2-oxo-2-phenylethyl)-2-((1-(3-(trifluoromethyl)benzoyl)piperidin-4-yl)oxy)benzamide], the fold induction at 1 µM in the experiment on KAI1 promoter (setting [2]) is 0.92. Besides, the “In vivo relative invation” value in experiment [1] came out at 1.25.
